Data published in the NIST ThermoML archive (doi:10.1016/j.jct.2011.02.008).

Settings: Liquid, Vibrating tube method

CCCCCCO [hexan-1-ol]
mass density [kg/m3]
Settings	278.15 K	288.15 K	298.15 K	308.15 K	318.15 K	328.15 K	338.15 K	348.15 K	358.15 K
100 kPa	828.9	822.1	814.9	807.8	800.5	793	785.4	777.6	769.4
1000 kPa	829.5	822.7	815.6	808.4	801.2	793.7	786.2	778.4	770
5000 kPa	832	825.3	818.4	811.4	804.3	797	789.6	782	774.2
10000 kPa	835	828.5	821.7	814.8	807.9	800.8	793.6	786.2	778.6
15000 kPa	838	831.6	824.9	818.2	811.4	804.4	797.4	790.2	782.8
20000 kPa	840.8	834.6	828	821.4	814.7	807.9	801	794.1	786.9
25000 kPa	843.6	837.4	830.9	824.5	817.9	811.2	804.5	797.6	790.7
30000 kPa	846.3	840.2	833.8	827.5	821	814.4	807.9	801.2	794.3
35000 kPa	848.9	842.9	836.6	830.3	824	817.6	811.1	804.6	797.9
40000 kPa	851.4	845.5	839.4	833.2	826.9	820.6	814.2	807.8	801.3
45000 kPa	853.9	848	842	835.9	829.7	823.5	817.3	811	804.6
50000 kPa	856.3	850.5	844.6	838.5	832.4	826.4	820.2	814	807.7
55000 kPa	858.7	853	847.1	841.1	835.1	829.1	823.1	817	810.8
60000 kPa	860.9	855.4	849.6	843.5	837.7	831.6	825.7	819.7	813.5

COC(=O)c1ccccc1 [methyl benzoate]
mass density [kg/m3]
Settings	278.15 K	288.15 K	298.15 K	308.15 K	318.15 K	328.15 K	338.15 K	348.15 K	358.15 K
100 kPa	1101.5	1092.1	1082.7	1073	1063.3	1053.6	1044.1	1034.4	1024.9
1000 kPa	1102.1	1092.6	1083.2	1073.6	1063.8	1054.3	1044.8	1035.1	1025.6
5000 kPa	1104.4	1095	1085.8	1076.2	1066.7	1057.2	1048	1038.4	1029.1
10000 kPa	1107.2	1097.9	1089	1079.5	1070.1	1060.8	1051.7	1042.4	1033.3
15000 kPa	1109.9	1100.8	1091.8	1082.6	1073.4	1064.3	1055.3	1046.2	1037.3
20000 kPa	1112.6	1103.6	1094.8	1085.7	1076.6	1067.6	1058.8	1049.8	1041.2
25000 kPa	1115.2	1106.3	1097.6	1088.6	1079.7	1070.9	1062.2	1053.4	1044.9
30000 kPa	1117.7	1109	1100.4	1091.5	1082.8	1074	1065.5	1056.9	1048.5
35000 kPa	1120.2	1111.6	1103.1	1094.3	1085.7	1077.1	1068.8	1060.3	1052
40000 kPa	1122.7	1114.1	1105.7	1097.1	1088.6	1080.1	1071.9	1063.5	1055.4
45000 kPa	1125.1	1116.6	1108.3	1099.8	1091.4	1083	1074.9	1066.7	1058.7
50000 kPa	1127.4	1119.1	1110.9	1102.4	1094.1	1085.9	1077.9	1069.8	1061.9
55000 kPa	1129.7	1121.4	1113.4	1105	1096.8	1088.7	1080.8	1072.8	1065.1
60000 kPa	1131.8	1123.6	1115.6	1107.4	1099.3	1091.2	1083.5	1075.5	1067.9
